# Data: patent US20130045983A1, “HSP90 INHIBITORS FOR THERAPEUTIC TREATMENT” (Novartis AG, priority 2008, published 2013)
# How the values were obtained:
# Assay type in all cases: cell-based
# A549 = assay: Cell proliferation assay, A549 (lung); conditions: Homo sapiens, 72 hours in presence of compound
# Method: (§1) Seventeen cancer derived cell lines are used (GTL-16, N87, H1975, A549, H69, A2780, PC3, BT474, SKBR3, MCF-7, A375, MV4;11, K562, KM12L4A, H929, OPM-2 and KMS-11) to test the effect of (R)-2-amino-7-[2-(6-methoxy-pyridin-2-yl)-phenyl]-4-methyl-7,8-dihydro-6H-pyrido[4,3-d]pyrimidin-5-one. These cell lines cover the following 9 tumor types: Gastric, Lung, Ovarian, Prostate, Breast, Melanoma, Leukemia, Colon and Multiple myeloma. After division and medium change, cells from stock culture are seeded on cell plates and cultured for about 18 hours to allow cell growth and attachment before starting the assay. Then on the first day of the assay, (R)-2-amino-7-[2-(6-methoxy-pyridin-2-yl)-phenyl]-4-methyl-7,8-dihydro-6H-pyrido[4,3-d]pyrimidin-5-one is added to the medium at various concentrations. Cells are cultured up to 72 or 96 hours and cell proliferation is determined using commercially available cell proliferation kits.
# (§2) Table 1 relates to the concentration in nM of (R)-2-amino-7-[2-(6-methoxy-pyridin-2-yl)-phenyl]-4-methyl-7,8-dihydro-6H-pyrido[4,3-d]pyrimidin-5-one which inhibits cell proliferation by 50% (IC50). […]
# BT474 = assay: Cell proliferation assay, BT474 (breast); conditions: Homo sapiens, BT-474, 72 hours in presence of compound
# Method: as §1, §2
# KM12L4A = assay: Cell proliferation assay, KM12L4A (colon); conditions: 72 hours in presence of compound
# Method: as §1, §2
# KMS-11 = assay: Cell proliferation assay, KMS-11 (multiple myeloma); conditions: Homo sapiens, 72 hours in presence of compound
# Method: as §1, §2
# CXF 1729 = assay: Clonogenic assay, CXF 1729; conditions: Homo sapiens, Colon, Papillary adenocarcinoma, soft agar, read-out: IC50 (colony formation)
# Method: (§3) The anticancer activity of (R)-2-amino-7-[2-(6-methoxy-pyridin-2-yl)-phenyl]-4-methyl-7,8-dihydro-6H-pyrido[4,3-d]pyrimidin-5-one is evaluated in 30 human tumor xenografts in vitro using a clonogenic assay. In this assay, human cells derived from cancer patients are evaluated for the capacity of (R)-2-amino-7-[2-(6-methoxy-pyridin-2-yl)-phenyl]-4-methyl-7,8-dihydro-6H-pyrido[4,3-d]pyrimidin-5-one to inhibit the formation of 3 dimensional colonies. […] The tumor xenografts which have never been cultured in cell culture plastic dishes are isolated from nude mice. Tumor cell suspensions are prepared and incubated in 24 well plates containing layers of soft agar. Under these conditions a special subpopulation of cells selectively grows to colonies. (R)-2-amino-7-[2-(6-methoxy-pyridin-2-yl)-phenyl]-4-methyl-7,8-dihydro-6H-pyrido[4,3-d]pyrimidin-5one is tested in 6 concentrations up to 1000 nM. The tumor test panel comprises 1 to 10 models of 12 different human tumor types, which were bladder cancer, colon, gastric, non small cell lung (adeno, squamous cell, and large cell), small cell lung, mammary, ovary, and prostate cancer, as well as leukemia, lymphoma, melanoma, and sarcoma. Antitumor effects are recorded as inhibition of colony formation in relation to untreated controls. […]
# GXF 1172 = assay: Clonogenic assay, GXF 1172; conditions: Homo sapiens, Stomach, Signet-ring cell carcinoma, soft agar, read-out: IC50 (colony formation)
# Method: as §3
# CXF 214 = assay: Clonogenic assay, CXF 214; conditions: Homo sapiens, Stomach, Adenocarcinoma, soft agar, read-out: IC50 (colony formation)
# Method: as §3
# LEXF MOLT4 = assay: Clonogenic assay, LEXF MOLT4; conditions: Homo sapiens, MOLT-4, Leukemia, ALL, T lymphoblast, soft agar, read-out: IC50 (colony formation)
# Method: as §3
# LXFA 526 = assay: Clonogenic assay, LXFA 526; conditions: Homo sapiens, Lung, non-small cell, Adenocarcinoma, soft agar, read-out: IC50 (colony formation)
# Method: as §3
# LXFA 677 = assay: Clonogenic assay, LXFA 677; conditions: Homo sapiens, Lung, non-small cell, Adenocarcinoma, soft agar, read-out: IC50 (colony formation)
# Method: as §3
# LXFE 1422 = assay: Clonogenic assay, LXFE 1422; conditions: Homo sapiens, Lung, non-small cell, Squamous cell carcinoma, soft agar, read-out: IC50 (colony formation)
# Method: as §3
# LXFL 1176 = assay: Clonogenic assay, LXFL 1176; conditions: Homo sapiens, Lung, non-small cell, Mucous large cell lung carcinoma, soft agar, read-out: IC50 (colony formation)
# Method: as §3
# LXFL 1647 = assay: Clonogenic assay, LXFL 1647; conditions: Homo sapiens, Lung, non-small cell, Large cell lung carcinoma, soft agar, read-out: IC50 (colony formation)
# Method: as §3
# MAXF 574 = assay: Clonogenic assay, MAXF 574; conditions: Homo sapiens, Breast, Carcinoma, soft agar, read-out: IC50 (colony formation)
# Method: as §3
# MAXF 583 = assay: Clonogenic assay, MAXF 583; conditions: Homo sapiens, Breast, Ductual adenocarcinoma, soft agar, read-out: IC50 (colony formation)
# Method: as §3
# MAXF 713 = assay: Clonogenic assay, MAXF 713; conditions: Homo sapiens, Breast, Adenocarcinoma, soft agar, read-out: IC50 (colony formation)
# Method: as §3
# MEXF 989 = assay: Clonogenic assay, MEXF 989; conditions: Homo sapiens, Amelanotic melanoma, soft agar, read-out: IC50 (colony formation)
# Method: as §3
# OVXF 1353 = assay: Clonogenic assay, OVXF 1353; conditions: Homo sapiens, Ovary, Adenocarcinoma, soft agar, read-out: IC50 (colony formation)
# Method: as §3
# SXF 463 = assay: Clonogenic assay, SXF 463; conditions: Homo sapiens, Sarcoma, Rhabdomyosarcoma, soft agar, read-out: IC50 (colony formation)
# Method: as §3
structure (smiles),measurement,setting,value
"COc1cccc(-c2ccccc2[C@H]2Cc3nc(N)nc(C)c3C(=O)N2)n1 [(R)-2-amino-7-[2-(6-methoxy-pyridin-2-yl)-phenyl]-4-methyl-7,8-dihydro-6H-pyrido[4,3-d]pyrimidin-5-one]",GI50,A549,16 nM
same,GI50,BT474,6 nM
same,GI50,KM12L4A,11 nM
same,GI50,KMS-11,7 nM
same,IC50,CXF 1729,199 nM
same,IC50,GXF 1172,43 nM
same,IC50,CXF 214,> 1000 nM
same,IC50,LEXF MOLT4,21 nM
same,IC50,LXFA 526,36 nM
same,IC50,LXFA 677,27 nM
same,IC50,LXFE 1422,20 nM
same,IC50,LXFL 1176,21 nM
same,IC50,LXFL 1647,203 nM
same,IC50,MAXF 574,316 nM
same,IC50,MAXF 583,24 nM
same,IC50,MAXF 713,> 1000 nM
same,IC50,MEXF 989,17 nM
same,IC50,OVXF 1353,53 nM
same,IC50,SXF 463,5 nM
